For 25 compounds, IC50 results are on record in US20160355475A1, “NOVEL INDOLE DERIVATIVE COMPOUND AND PHARMACEUTICAL COMPOSITION COMPRISING THE SAME” (CHONG KUN DANG PHARMACEUTICAL CORP., priority 2014, published 2016).

For experiment [1], the target named is T1, HDAC6 human recombinant (Homo sapiens, UniProt Q9UBN7).
T1 construct: purchased Calbiochem 382180
T1 sequence (Q9UBN7 1-1215): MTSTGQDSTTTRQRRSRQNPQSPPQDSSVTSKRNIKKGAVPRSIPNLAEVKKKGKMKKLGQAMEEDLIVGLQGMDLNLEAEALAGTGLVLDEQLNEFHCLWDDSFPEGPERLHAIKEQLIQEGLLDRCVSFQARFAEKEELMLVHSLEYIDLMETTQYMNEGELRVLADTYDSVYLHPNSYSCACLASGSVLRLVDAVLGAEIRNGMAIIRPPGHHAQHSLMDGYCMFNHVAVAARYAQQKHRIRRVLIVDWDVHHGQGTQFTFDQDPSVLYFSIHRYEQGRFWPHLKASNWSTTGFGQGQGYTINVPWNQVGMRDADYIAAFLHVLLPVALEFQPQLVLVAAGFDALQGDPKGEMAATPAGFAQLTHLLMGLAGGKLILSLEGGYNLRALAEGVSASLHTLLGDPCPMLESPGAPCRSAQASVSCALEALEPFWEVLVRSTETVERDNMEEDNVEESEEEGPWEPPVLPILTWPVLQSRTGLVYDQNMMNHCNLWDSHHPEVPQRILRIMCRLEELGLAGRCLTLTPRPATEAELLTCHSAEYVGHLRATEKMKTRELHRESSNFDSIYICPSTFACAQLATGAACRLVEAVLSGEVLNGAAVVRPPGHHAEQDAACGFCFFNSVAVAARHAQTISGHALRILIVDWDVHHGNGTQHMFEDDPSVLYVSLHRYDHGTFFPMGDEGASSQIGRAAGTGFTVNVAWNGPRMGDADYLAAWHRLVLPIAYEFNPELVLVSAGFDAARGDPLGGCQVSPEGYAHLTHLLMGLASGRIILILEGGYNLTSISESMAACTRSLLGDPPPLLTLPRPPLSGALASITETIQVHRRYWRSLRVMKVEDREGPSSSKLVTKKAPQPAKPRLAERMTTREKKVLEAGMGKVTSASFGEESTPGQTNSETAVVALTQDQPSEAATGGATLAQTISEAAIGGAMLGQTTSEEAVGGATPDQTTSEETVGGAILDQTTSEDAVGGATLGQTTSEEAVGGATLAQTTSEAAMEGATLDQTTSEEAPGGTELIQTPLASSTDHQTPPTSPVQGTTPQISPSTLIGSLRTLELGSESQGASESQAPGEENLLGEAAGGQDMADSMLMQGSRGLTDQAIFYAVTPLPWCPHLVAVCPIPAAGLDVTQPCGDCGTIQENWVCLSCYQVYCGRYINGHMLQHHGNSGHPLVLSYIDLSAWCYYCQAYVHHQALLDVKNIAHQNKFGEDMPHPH
As to the kind of experiment: HDAC6 enzyme activity inhibition (fluorimetric, in vitro). It is filed as biochemical. The conditions noted are these: 37° C., 60 minutes; tested at 0.1, 1, 10, 100 and 1000 nM. On the procedure:
(§1) 1. Experiment on Activities in HDAC Enzymes (HDAC1 and HDAC6)
(§2) Assays were performed using a HDAC1 fluorimetric drug discovery assay kit (Enzolifesciences: BML-AK511) and a HDAC6 human recombinant (Calbiochem: 382180). The assay mixture of the kit was treated with each of the compounds of the Examples at concentrations 100, 1000 and 10000 nM for HDAC1 assay and 0.1, 1, 10, 100 and 1000 nM for HDAC6 assay. The treated assay mixture was allowed to react at 37° C. for 60 minutes, and then was treated with a developer and allowed to stand at 37° C. for 30 minutes, followed by quantification of the fluorescence. In Table 17, lower HDAC6 values (μM) indicate higher HDAC6 inhibitory activities of the compounds. Also, because selective HDAC6 inhibitors should not inhibit HDAC1 (μM), higher HDAC1 values indicate higher HDAC6 selectivity of the compounds.

Experiment [2] concerns the target T2, HDAC1 (Homo sapiens, UniProt Q13547).
T2 construct: purchased Enzolifesciences BML-AK511
As to the kind of experiment: HDAC1 enzyme activity inhibition (HDAC1 fluorimetric drug discovery assay kit). Type of experiment: biochemical. Conditions: 37° C., 60 minutes; tested at 100, 1000 and 10000 nM. On the procedure:
as §1, §2

T2 sequence (Q13547 whole entry): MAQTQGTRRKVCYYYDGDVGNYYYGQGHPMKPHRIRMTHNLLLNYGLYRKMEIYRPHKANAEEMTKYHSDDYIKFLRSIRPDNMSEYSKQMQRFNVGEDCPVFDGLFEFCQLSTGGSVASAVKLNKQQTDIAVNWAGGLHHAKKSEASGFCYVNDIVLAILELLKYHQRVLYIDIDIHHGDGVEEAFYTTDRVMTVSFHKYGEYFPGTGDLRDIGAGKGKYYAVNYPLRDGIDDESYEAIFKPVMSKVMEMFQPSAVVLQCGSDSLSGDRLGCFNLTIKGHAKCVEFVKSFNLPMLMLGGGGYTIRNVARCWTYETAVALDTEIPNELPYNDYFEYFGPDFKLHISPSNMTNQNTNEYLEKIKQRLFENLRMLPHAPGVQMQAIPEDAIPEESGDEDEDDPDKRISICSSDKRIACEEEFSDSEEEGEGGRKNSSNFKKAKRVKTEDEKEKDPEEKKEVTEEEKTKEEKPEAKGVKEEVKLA

One may read the IC50 as the concentration at which inhibition is half-maximal. For the compound `Cc1c(Cc2ccc(C(=O)NO)cc2)c2ccccc2n1CCN1CCOCC1` [Compound 153, N-hydroxy-4-((2-methyl-1-(2-morpholinoethyl)-1H-indol-3-yl)methyl)benzamide], the values for the IC50 in experiment [1] and in experiment [2] were 140 nM and 4380 nM, respectively.

Take `Cc1c(Cc2ccc(C(=O)NO)cc2)c2ccccc2n1CCN1CCN(C)CC1` [Compound 154, N-hydroxy-4-((2-methyl-1-(2-(4-methylpiperazin-1-yl)ethyl)-1H-indol-3-yl)methyl)benzamide]: the IC50 in experiment [1] came to 8 nM; in experiment [2], 2220 nM.

Turning to `O=C(NO)c1ccc(Cc2c(CN3CCOCC3)[nH]c3ccccc23)cc1` [Compound 155, N-hydroxy-4-((2-(morpholinomethyl)-1H-indol-3-yl)methyl)benzamide], the half-inhibitory concentration (IC50) in experiment [1] was 24 nM; in experiment [2] it was 3860 nM.

Consider `Cc1c(Cc2ccc(C(=O)NO)cc2)c2ccccc2n1CCN1CCN(C(C)C)CC1` [Compound 196, N-hydroxy-4-((1-(2-(4-isopropylpiperazin-1-yl)ethyl)-2-methyl-1H-indol-3-yl)methyl)benzamide], for which the 50% inhibitory concentration (IC50) was determined as 6 nM in experiment [1] and 1610 nM in experiment [2].

Regarding `Cc1c(Cc2ccc(C(=O)NO)cc2)c2ccccc2n1CCN1CCN(CCO)CC1` [Compound 197, N-hydroxy-4-((1-(2-(4-(2-hydroxyethyl)piperazin-1-yl)ethyl)-2-methyl-1H-indol-3-yl)methyl)benzamide], the concentration for half-maximal inhibition (IC50) was 8 nM in experiment [1] and 1810 nM in experiment [2].

On to `COCCN1CCN(CCn2c(C)c(Cc3ccc(C(=O)NO)cc3)c3ccccc32)CC1` [Compound 198, N-hydroxy-4-((1-(2-(4-(2-methoxyethyl)piperazin-1-yl)ethyl)-2-methyl-1H-indol-3-yl)methyl)benzamide], for which the IC50 is 5 nM in experiment [1] and 1890 nM in experiment [2].

Turning to `Cc1c(Cc2ccc(C(=O)NO)cc2)c2ccccc2n1CCN1CCC[C@H]1CO` [Compound 199, (S)—N-hydroxy-4-((1-(2-(2-(hydroxymethyl)pyrrolidin-1-yl)ethyl)-2-methyl-1H-indol-3-yl)methyl)benzamide], the IC50 is 4 nM in experiment [1] and 1260 nM in experiment [2].

As to `Cc1c(Cc2ccc(C(=O)NO)cn2)c2ccccc2n1CCN1CCN(C)CC1` [Compound 243, N-hydroxy-6-((2-methyl-1-(2-(4-methylpeperazin-1-yl)ethyl)-1H-indol-3-yl)methyl)nicotinamide], the half-inhibitory concentration (IC50) in experiment [1] is 340 nM.

Consider `Cc1c(Cc2ccc(C(=O)NO)cn2)c2ccccc2n1CCN1CCOCC1` [Compound 244, N-hydroxy-6-((2-methyl-1-(2-morpholinoethyl)-1H-indol-3-yl)methyl)nocotinamide], for which the IC50 in experiment [1] turned out to be 236 nM.

`Cc1c(Cc2ccc(C(=O)NO)cc2)c2ccccc2n1CCN1CCCC(F)C1` (centres unmarked) [Compound 550, 4-((1-(2-(3-fluoropiperidin-1-yl)ethyl)-2-methyl-1H-indol-3-yl)methyl)-N-hydroxybenzamide]: in experiment [1], the IC50 was 68 nM.

In the case of `Cc1c(Cc2ccc(C(=O)NO)cc2)c2ccccc2n1CCN1CCC[C@H]1CF` [Compound 551, (S)-4-((1-(2-(2-(fluoromethyl)pyrrolidin-1-yl)ethyl)-2-methyl-1H-indol-3-yl)methyl)-N-hydroxybenzamide], in experiment [1], the IC50 was determined as 82 nM.

In the case of `Cc1c(Cc2ccc(C(=O)NO)cc2)c2ccccc2n1CC1CCN(Cc2ccccc2)CC1` [Compound 556, 4-((1-((1-Benzylpiperidin-4-yl)methyl)-2-methyl-1H-indol-3-yl)methyl)-N-hydroxybenzamide], in experiment [1], the IC50 turned out to be 108 nM.

`Cc1c(Cc2ccc(C(=O)NO)cc2)c2ccccc2n1CC1CCN(CCc2ccccc2)CC1` [Compound 559, N-hydroxy-4-((2-methyl-1-((1-phenethylpiperidin-4-yl)methyl)-1H-indol-3-yl)methyl)benzamide]: the half-inhibitory concentration (IC50) in experiment [1] worked out at 273 nM.

In the case of `Cc1c(Cc2ccc(C(=O)NO)cc2F)c2ccccc2n1CC1CCN(CC(C)(C)F)CC1` [Compound 562, 3-Fluoro-4-((1-((1-(2-fluoro-2-methylpropyl)piperidin-4-yl)methyl)-2-methyl-1H-indol-3-yl)methyl)-N-hydroxybenzamide], the IC50 in experiment [1] was determined as 87 nM.

As for `Cc1c(Cc2ccc(C(=O)NO)cc2)c2ccccc2n1CCC1CCN(CC(C)(C)F)CC1` [Compound 563, 4-((1-(2-(1-(2-Fluoro-2-methylpropyl)piperidin-4-yl)ethyl)-2-methyl-1H-indol-3-yl)methyl)-N-hydroxybenzamide], the IC50 in experiment [1] worked out at 307 nM.

Turning to `Cc1c(Cc2ccc(C(=O)NO)cc2)c2ccccc2n1CC1CCN(CC2(F)CCOCC2)CC1` [Compound 584, 4-((1-((1-((4-Fluoro-tetrahydro-2H-pyran-4-yl)methyl)piperidin-4-yl)methyl)-2-methyl-1H-indol-3-yl)methyl)-N-hydroxybenzamide], the half-inhibitory concentration (IC50) in experiment [1] stood at 7 nM.

Turning to `CC(C)(F)CN1CCC(Cn2cc(Cc3ccc(C(=O)NO)cc3)c3ccccc32)CC1` [Compound 614, 4-((1-((1-(2-Fluoro-2-methylpropyl)piperidin-4-yl)methyl)-1H-indol-3-yl)methyl)-N-hydroxybenzamide], the 50% inhibitory concentration (IC50) in experiment [1] is 150 nM.

In the case of `CC(C)(F)CN1CCC(Cn2c(-c3ccccc3)c(Cc3ccc(C(=O)NO)cc3)c3ccccc32)CC1` [Compound 616, 4-((1-((1-(2-Fluoro-2-methylpropyl)piperidin-4-yl)methyl)-2-phenyl-1H-indol-3-yl)methyl)-N-hydroxybenzamide], in experiment [1], the IC50 amounted to 821 nM.

Take `Cc1c(Cc2ccc(C(=O)NO)cc2)c2ccccc2n1CC1CCN(Cc2ccncc2)CC1` [Compound 621, N-hydroxy-4-((2-methyl-1-((1-(pyridin-4-ylmethyl)piperidin-4-yl)methyl)-1H-indol-3-yl)methyl)benzamide]: in experiment [1], the IC50 came to 89 nM.

Consider `Cc1c(Cc2ccc(C(=O)NO)cc2)c2ccccc2n1CC1CCN(Cc2ccc(F)cc2)CC1` [Compound 622, 4-((1-((1-(4-Fluorobenzyl)piperidin-4-yl)methyl)-2-methyl-1H-indol-3-yl)methyl)-N-hydroxybenzamide], for which the IC50 in experiment [1] turned out to be 90 nM.

On to `CC(C)(F)CN1CCC(Cn2c(C3=CCOCC3)c(Cc3ccc(C(=O)NO)cc3)c3ccccc32)CC1` [Compound 627, 4-((2-(3,6-Dihydro-2H-pyran-4-yl)-1-((1-(2-fluoro-2-methylpropyl)piperidin-4-yl)methyl)-1H-indol-3-yl)methyl)-N-hydroxybenzamide], for which the IC50 in experiment [1] stood at 352 nM.

As to `Cc1c(Cc2ccc(C(=O)NO)cc2)c2ccccc2n1CC1CCN(CC2(F)CCN(C(=O)NC(C)C)CC2)CC1` [Compound 695, 4-Fluoro-4-((4-((3-(4-(hydroxycarbamoyl)benzyl)-2-methyl-1H-indol-1-yl)methyl)piperidin-1-yl)methyl)-N-isopropylpiperidine-1-carboxamide], in experiment [1], the concentration for half-maximal inhibition (IC50) came to 24 nM.

Turning to `CC(C)(F)CN1CCC(Cn2cc(Cc3ccc(C(=O)NO)cc3)c3c(F)cccc32)CC1` [Compound 707, 4-((4-Fluoro-1-((1-(2-fluoro-2-methylpropyl)piperidin-4-yl)methyl)-1H-indol-3-yl)methyl)-N-hydroxybenzamide], the half-inhibitory concentration (IC50) in experiment [1] was determined as 171 nM.

Consider `CC(C)(F)CN1CCC(Cn2cc(Cc3ccc(C(=O)NO)cc3)c3ccc(F)cc32)CC1` [Compound 708, 4-((6-Fluoro-1-((1-(2-fluoro-2-methylpropyl)piperidin-4-yl)methyl)-1H-indol-3-yl)methyl)-N-hydroxybenzamide], for which, in experiment [1], the half-maximal inhibitory concentration (IC50) came to 432 nM.

As for `Cc1c(Cc2ccc(C(=O)NO)cc2)c2ccccc2n1CC1CN(CC(C)(C)F)C1` [Compound 750, 4-((1-((1-(2-Fluoro-2-methylpropyl)azetidin-3-yl)methyl)-2-methyl-1H-indol-3-yl)methyl)-N-hydroxybenzamide], in experiment [1], the half-maximal inhibitory concentration (IC50) stood at 114 nM.
